# Measurements reported in US11085056B2, “Transfection complexes and methods of using the same” (MOLECULAR TRANSFER, INC., priority 2015, dated 2021).
# Assays:
# HeLa Cells [1] = assay: Transfection of HeLa cells with DOTMA/DOPE/peptide and eGFP plasmid, fluorescent plate reader; format: cell-based; settings: DOTMA/DOPE 1:1 plus peptide with RRRRRRRRRRRR (SEQ ID NO: 109) at n terminus; EF1Alpha eGFP plasmid; 0.01 mL complex; 42 hours
# Summary of the method: (§1)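 Cells at 60-70% confluence got DOTMA/DOPE (1:1) mixed with peptides bearing an N-terminal R12 DNA-binding tag, complexed 10 min with EF1α-eGFP plasmid (5 μg/mL in OptiMEM); 0.01 or 0.02 mL complex per well. After 42 h at 37 °C, GFP read by fluorescence plate reader and % transfected cells by microscopy, relative to lipid without peptide.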
# HuVec Cells = assay: Transfection of HuVec cells with DOTMA/DOPE/peptide and eGFP plasmid, fluorescent plate reader; format: cell-based; settings: DOTMA/DOPE 1:1 plus peptide with RRRRRRRRRRRR (SEQ ID NO: 109) at n terminus; EF1Alpha eGFP plasmid; 0.01 mL complex; 42 hours
# Summary of the method: as §1
# NL-1 iPS Cells = assay: Transfection of NL-1 iPS cells with DOTMA/DOPE/peptide and eGFP plasmid, fluorescent plate reader; format: cell-based; settings: DOTMA/DOPE 1:1 plus peptide with RRRRRRRRRRRR (SEQ ID NO: 109) at n terminus; EF1Alpha eGFP plasmid; 42 hours
# C2C12 Cells = assay: Transfection of C2C12 cells with DOTMA/DOPE/peptide and eGFP plasmid, fluorescent plate reader; format: cell-based, mouse; settings: DOTMA/DOPE 1:1 plus peptide with RRRRRRRRRRRR (SEQ ID NO: 109) at n terminus; EF1Alpha eGFP plasmid; 0.02 mL complex; 42 hours
# Summary of the method: as §1
# Human Fibroblast Cells = assay: Transfection of human fibroblast cells with DOTMA/DOPE/peptide and eGFP plasmid, fluorescent plate reader; format: cell-based; settings: DOTMA/DOPE 1:1 plus peptide with RRRRRRRRRRRR (SEQ ID NO: 109) at n terminus; EF1Alpha eGFP plasmid; 0.01 mL complex; 42 hours
# Summary of the method: as §1
# Jurkat Cells = assay: Transfection of Jurkat cells with DOTMA/DOPE/peptide and eGFP plasmid, fluorescent plate reader; format: cell-based; settings: DOTMA/DOPE 1:1 plus peptide with RRRRRRRRRRRR (SEQ ID NO: 109) at n terminus; EF1Alpha eGFP plasmid; 0.02 mL complex; 42 hours
# Summary of the method: as §1
# HeLa Cells [2] = assay: Transfection of HeLa cells with DOTMA/SEQ ID NO: 72/peptide compared with Lipofectamine 2000; format: cell-based; settings: fusogenic peptide 0.1 mg/mL
# Summary of the method: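 HeLa cells at 60–70% confluence received 0.01 mL of complexes of EF1Alpha eGFP plasmid (5 μg/mL in OptiMEM) with DOTMA/DOPE (1:1) plus R12-linked peptide, with fusogenic peptide at 0.1 mg/mL final. GFP read by fluorescence plate reader and microscopy (% cells transfected) after 42 h at 37 °C.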
# some examined cell types = assay: Transfection expression and % cells transfected over the no peptide control; format: cell-based; settings: on some examined cell types
# Summary of the method: as §1
# [3] = 0.1 μL of DOTMA/SEQ ID NO: 72/Peptide in well of a 96 well plate
# [4] = 0.2 μL of DOTMA/SEQ ID NO: 72/Peptide in well of a 96 well plate
# [5] = 0.3 μL of DOTMA/SEQ ID NO: 72/Peptide in well of a 96 well plate
# [6] = 0.4 μL of DOTMA/SEQ ID NO: 72/Peptide in well of a 96 well plate
Substance,RF (Relative Fluorescence) of Transfection of HeLa Cells (HeLa Cells [1]),RF (Relative Fluorescence) of Transfection of HuVec Cells (HuVec Cells),RF (Relative Fluorescence) of Transfection of NL-1 iPS Cells (NL-1 iPS Cells),RF (Relative Fluorescence) of Transfection of C2C12 Cells (C2C12 Cells),RF (Relative Fluorescence) of Transfection of Human Fibroblast Cells (Human Fibroblast Cells),RF (Relative Fluorescence) of Transfection of Jurkat Cells (Jurkat Cells),"RF (Relative Fluorescence), DOTMA/SEQ ID NO: 72/Peptide, HeLa Cells (HeLa Cells [2]; [3])","RF (Relative Fluorescence), DOTMA/SEQ ID NO: 72/Peptide, HeLa Cells (HeLa Cells [2]; [4])","RF (Relative Fluorescence), DOTMA/SEQ ID NO: 72/Peptide, HeLa Cells (HeLa Cells [2]; [5])","RF (Relative Fluorescence), DOTMA/SEQ ID NO: 72/Peptide, HeLa Cells (HeLa Cells [2]; [6])",transfection expression and the % cells transfected over the no peptide control (some examined cell types)
342 (TAGSCLRKFSTM; Peptidic transfection agent) [compound 342],33666,12804,11493,9496,9525,12825,41299,36040,28841,18351,increased
343 (LFSHAVSSNG; Peptidic transfection agent) [compound 343],5910,16239,21726,3218,4590,23499,6961,8626,8577,8160,increased
344 (KGHRGF; Peptidic transfection agent) [compound 344],14415,11867,10895,1678,12704,10160,13315,16387,12564,12511,increased
347 (DLGTAGSCLRKFSTM; Peptidic transfection agent) [compound 347],22527,20728,21865,4457,9255,17720,23188,21493,16814,14140,increased
348 (HQQDLGTAGSCLRKFSTM; Peptidic transfection agent) [compound 348],22289,21214,21645,8625,11802,15585,17413,18615,16164,15054,increased
350 (SIGFRGDGQTC; Peptidic transfection agent) [compound 350],13313,13163,19132,2631,7105,9184,24092,23238,19802,22255,increased
351 (LNRQELFPFG; Peptidic transfection agent) [compound 351],12279,15379,24646,3530,8061,9730,7678,11499,10575,8791,increased
353 (KKQRFRHRNRKGYRSQ; Peptidic transfection agent) [compound 353],29119,8772,9248,4291,8653,11107,36315,44772,36882,25802,increased
355 (FRHRNRKGY; Peptidic transfection agent) [compound 355],32628,14810,7910,1900,6821,8132,18362,27990,22367,18289,increased
357 (SETTVKYIFRLHE; Peptidic transfection agent) [compound 357],22679,6009,15624,4506,7167,2256,7718,11798,9229,9107,increased
